Data published in PubChem BioAssay AID248 (DTP/NCI, 2004).
Values joined by “and” are separate entries in the source; they are usually repeats but may differ in a detail not shown here. Equal values may be shown once. Toxic doses and inconclusive results are not listed. No stated cut-off is given here; in the data, active means T/C of 150% or more; inactive means T/C below 125%.

System: L1210 leukemia ip in BDF1 mice, survival T/C
Experiment: NCI In Vivo Anticancer Drug Screen. Data for tumor model L1210 Leukemia (intraperitoneal) in B6D2F1 (BDF1) mice
Details: endpoint: mean survival time, higher = longer survival
Procedure, shortened: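 Antitumor effect is assessed in tumor-bearing animals. Survival in the compound arm is compared with a vehicle-dosed control arm and expressed as their quotient.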

[1] = dose: 100.0 mg/kg/injection, schedule: Q01DX001 (ip), vehicle: saline with Tween-80
[2] = dose: 200.0 mg/kg/injection, schedule: Q04DX003 (ip), vehicle: saline with Tween-80
[3] = dose: 400.0 mg/kg/injection, schedule: Q01DX009 (ip), vehicle: saline with Tween-80
[4] = dose: 100.0 mg/kg/injection, schedule: Q01DX009 (ip), vehicle: saline
[5] = dose: 100.0 mg/kg/injection, schedule: Q04DX003 (ip), vehicle: saline
[6] = dose: 200.0 mg/kg/injection, schedule: Q01DX009 (ip), vehicle: saline
[7] = dose: 200.0 mg/kg/injection, schedule: Q04DX003 (ip), vehicle: saline
[8] = dose: 100.0 mg/kg/injection, schedule: Q01DX009 (ip), vehicle: saline with Tween-80
[9] = dose: 200.0 mg/kg/injection, schedule: Q01DX009 (ip), vehicle: saline with Tween-80
[10] = dose: 100.0 mg/kg/injection, schedule: Q01DX001 (ip), vehicle: Klucel (hydroxypropylcellulose) (HPC)
[11] = dose: 200.0 mg/kg/injection, schedule: Q01DX001 (ip), vehicle: Klucel (hydroxypropylcellulose) (HPC)
[12] = dose: 400.0 mg/kg/injection, schedule: Q01DX001 (ip), vehicle: Klucel (hydroxypropylcellulose) (HPC)
[13] = dose: 100.0 mg/kg/injection, schedule: Q04DX002 (ip), vehicle: Klucel (hydroxypropylcellulose) (HPC)
[14] = dose: 200.0 mg/kg/injection, schedule: Q04DX002 (ip), vehicle: Klucel (hydroxypropylcellulose) (HPC)

Measured: T/C

Cc1c(Cl)cccc1NC(=O)Nc1cccc2c(O)cccc12
inactive: dose: 50.0 mg/kg/injection, schedule: Q01DX009 (ip), vehicle: saline with Tween-80 92 % of control | [1] 89 % of control | dose: 100.0 mg/kg/injection, schedule: Q04DX002 (ip), vehicle: saline with Tween-80 86 % of control and 89 % of control | dose: 200.0 mg/kg/injection, schedule: Q01DX001 (ip), vehicle: saline with Tween-80 90 % of control | dose: 200.0 mg/kg/injection, schedule: Q04DX002 (ip), vehicle: saline with Tween-80 86 % of control and 91 % of control | [2] 88 % of control | dose: 400.0 mg/kg/injection, schedule: Q01DX001 (ip), vehicle: saline with Tween-80 89 % of control | [3] 94 % of control and 87 % of control | dose: 400.0 mg/kg/injection, schedule: Q04DX002 (ip), vehicle: saline with Tween-80 87 % of control and 89 % of control

CC1(C)C2CCC1(C)C(NC(=O)N(CCCl)N=O)C2 (stereo not given)
inactive: dose: 4.0 mg/kg/injection, schedule: Q01DX001 (ip), vehicle: carboxymethylcellulose (CMC) 98 % of control | dose: 9.0 mg/kg/injection, schedule: Q01DX001 (ip), vehicle: carboxymethylcellulose (CMC) 96 % of control | dose: 18.0 mg/kg/injection, schedule: Q01DX001 (ip), vehicle: carboxymethylcellulose (CMC) 102 % of control | dose: 37.0 mg/kg/injection, schedule: Q01DX001 (ip), vehicle: carboxymethylcellulose (CMC) 112 % of control | dose: 75.0 mg/kg/injection, schedule: Q01DX001 (ip), vehicle: carboxymethylcellulose (CMC) 104 % of control | dose: 150.0 mg/kg/injection, schedule: Q01DX001 (ip), vehicle: carboxymethylcellulose (CMC) 106 % of control | dose: 200.0 mg/kg/injection, schedule: Q01DX001 (ip), vehicle: carboxymethylcellulose (CMC) 115 % of control | dose: 500.0 mg/kg/injection, schedule: Q01DX001 (ip), vehicle: carboxymethylcellulose (CMC) 115 % of control | dose: 1000.0 mg/kg/injection, schedule: Q01DX001 (ip), vehicle: carboxymethylcellulose (CMC) 121 % of control

Cc1ccc(/C=C/S(=O)(=O)c2ccccc2)cc1
inactive: dose: 100.0 mg/kg/injection, schedule: Q01DX001 (ip), vehicle: acetone 109 % of control | dose: 100.0 mg/kg/injection, schedule: Q01DX009 (ip), vehicle: acetone 87 % of control | dose: 100.0 mg/kg/injection, schedule: Q04DX003 (ip), vehicle: acetone 97 % of control | dose: 200.0 mg/kg/injection, schedule: Q01DX001 (ip), vehicle: acetone 98 % of control | dose: 200.0 mg/kg/injection, schedule: Q01DX009 (ip), vehicle: acetone 87 % of control | dose: 200.0 mg/kg/injection, schedule: Q04DX003 (ip), vehicle: acetone 103 % of control | dose: 400.0 mg/kg/injection, schedule: Q01DX001 (ip), vehicle: acetone 98 % of control | dose: 400.0 mg/kg/injection, schedule: Q01DX009 (ip), vehicle: acetone 88 % of control | dose: 400.0 mg/kg/injection, schedule: Q04DX003 (ip), vehicle: acetone 105 % of control

CNCC(SC)c1ccc(O)c(O)c1 (stereo not given)
inactive: dose: 50.0 mg/kg/injection, schedule: Q01DX009 (ip), vehicle: saline 103 % of control | [4] 103 % of control | [5] 114 % of control | [6] 121 % of control | [7] 114 % of control

CC(C)CC(NC(=O)c1ccccc1)C(N)=O (stereo not given)
inactive: [8] 90 % of control | [9] 90 % of control

C=C1C(=O)OC2CCCCC3OC3C12 (stereo not given)
inactive: [1] 102 % of control

CCCCCCCCCCCCCCCCCCC[As](=O)(O)CCCCCCCCCCCCCCCCCCC
inactive: dose: 50.0 mg/kg/injection, schedule: Q01DX001 (ip), vehicle: saline 97 % of control | dose: 100.0 mg/kg/injection, schedule: Q01DX001 (ip), vehicle: saline 89 % of control | dose: 200.0 mg/kg/injection, schedule: Q01DX001 (ip), vehicle: saline 95 % of control | dose: 400.0 mg/kg/injection, schedule: Q01DX001 (ip), vehicle: saline 91 % of control

CC(=O)Nc1ccc(/C=C/C(=O)c2ccc(C)cc2)cc1
inactive: [10] 101 % of control | dose: 100.0 mg/kg/injection, schedule: Q04DX003 (ip), vehicle: Klucel (hydroxypropylcellulose) (HPC) 104 % of control | [11] 100 % of control | dose: 200.0 mg/kg/injection, schedule: Q04DX003 (ip), vehicle: Klucel (hydroxypropylcellulose) (HPC) 103 % of control | [12] 103 % of control | dose: 400.0 mg/kg/injection, schedule: Q04DX003 (ip), vehicle: Klucel (hydroxypropylcellulose) (HPC) 94 % of control

c1ccc(C(c2ccccc2)n2cc[n+](C(c3ccccc3)c3ccccc3)c2)cc1
inactive: dose: 12.5 mg/kg/injection, schedule: Q04DX002 (ip), vehicle: gum acacia 96 % of control | dose: 25.0 mg/kg/injection, schedule: Q04DX002 (ip), vehicle: gum acacia 114 % of control

NC(=S)N/N=C/c1c(Cl)n(-c2ccccc2)c2ccccc12
inactive: dose: 50.0 mg/kg/injection, schedule: Q04DX002 (ip), vehicle: Klucel (hydroxypropylcellulose) (HPC) 87 % of control | [13] 87 % of control | [14] 93 % of control

CC(=O)OCC(OC(C)=O)C(OC(C)=O)C(C=O)OC(C)=O (stereo not given)
inactive: [10] 105 % of control | [8] 90 % of control | dose: 100.0 mg/kg/injection, schedule: Q04DX003 (ip), vehicle: saline with Tween-80 93 % of control | [11] 97 % of control | [9] 93 % of control | [2] 88 % of control | [12] 105 % of control | [3] 88 % of control | dose: 400.0 mg/kg/injection, schedule: Q04DX003 (ip), vehicle: saline with Tween-80 91 % of control

Nc1nc(=O)n(CC(=O)c2ccco2)cc1F
inactive: [4] 100 % of control | [5] 95 % of control | [6] 94 % of control | [7] 97 % of control | dose: 400.0 mg/kg/injection, schedule: Q04DX003 (ip), vehicle: saline 93 % of control

O=C1NC(=S)S/C1=C\c1ccc(F)cc1
inactive: dose: 12.5 mg/kg/injection, schedule: Q04DX003 (ip), vehicle: saline with Tween-80 117 % of control | dose: 25.0 mg/kg/injection, schedule: Q04DX003 (ip), vehicle: saline with Tween-80 98 % of control | dose: 50.0 mg/kg/injection, schedule: Q04DX003 (ip), vehicle: saline with Tween-80 103 % of control

CCCCCCCCOC(=O)c1[nH]cnc1/N=N\N(C)C
inactive: dose: 45.0 mg/kg/injection, schedule: Q01DX015 (ip), vehicle: other 103 % of control | dose: 88.0 mg/kg/injection, schedule: Q01DX001 (ip), vehicle: other 96 % of control | dose: 100.0 mg/kg/injection, schedule: Q01DX001 (ip), vehicle: other 102 % of control | dose: 133.0 mg/kg/injection, schedule: Q01DX001 (ip), vehicle: other 88 % of control | dose: 133.0 mg/kg/injection, schedule: Q01DX009 (ip), vehicle: other 101 % of control | dose: 180.0 mg/kg/injection, schedule: Q01DX015 (ip), vehicle: other 122 % of control | dose: 200.0 mg/kg/injection, schedule: Q01DX001 (ip), vehicle: other 109 % of control and 90 % of control | dose: 200.0 mg/kg/injection, schedule: Q01DX009 (ip), vehicle: other 95 % of control | dose: 300.0 mg/kg/injection, schedule: Q01DX001 (ip), vehicle: other 100 % of control | dose: 300.0 mg/kg/injection, schedule: Q01DX009 (ip), vehicle: other 100 % of control | dose: 400.0 mg/kg/injection, schedule: Q01DX001 (ip), vehicle: other 104 % of control | dose: 450.0 mg/kg/injection, schedule: Q01DX009 (ip), vehicle: other 97 % of control

CC(C(OC(=O)Nc1ccc(Cl)c(Cl)c1)c1ccc(F)cc1)C(O)(C(F)(F)F)C(F)(F)F (stereo not given)
inactive: dose: 100.0 mg/kg/injection, schedule: Q01DX009 (ip), vehicle: Klucel (hydroxypropylcellulose) (HPC) 93 % of control | dose: 200.0 mg/kg/injection, schedule: Q01DX009 (ip), vehicle: Klucel (hydroxypropylcellulose) (HPC) 93 % of control | dose: 400.0 mg/kg/injection, schedule: Q01DX009 (ip), vehicle: Klucel (hydroxypropylcellulose) (HPC) 91 % of control

CCOC(=O)C1OC1(C)C (stereo not given)
inactive: [13] 88 % of control | [14] 103 % of control | dose: 400.0 mg/kg/injection, schedule: Q04DX002 (ip), vehicle: Klucel (hydroxypropylcellulose) (HPC) 95 % of control
